Results reported in patent publication US20250236614A1, “BICYCLIC TETRAHYDROAZEPINE DERIVATIVES” (Hoffmann-La Roche Inc., priority 2022, published 2025).

Assays:
primary human T-cells [1] = assay: IL2 secretion measurements in CD3-stimulated T-cells; type: cell-based; conditions: isomer A; for EC50: CD3 antibody-stimulated T-cells, IL2 in supernatant after 24 hours, read-out: Tcell IL2 CD3 EC50; for Emax: read-out: Emax IL2 (% activation)
Protocol: As readouts for T-cell activation, IL2 secretion after 24 hours and proliferation after 5 days was measured. Increases in IL2 secretion and proliferation upon compound treatment were assessed as the % of the maximum of reference compound A1. WO 2016/139181 discloses reference compound A1 as example 70. As a counter screen and to make sure that no unwanted TCR-independent activation was triggered, PBS conditions were run for all compounds.
Expanded primary human T-cells were thawed and cultured in RPMI 1640 (Gibco, #61870-010)+5% human serum (HS, Sigma, #H3667)+1 mM Sodium Pyruvate (Gibco, #11360-039)+50 μM 2-mercaptoethanol (Gibco, #31350-010) and lx Pen-Strep (Life Technologies, #15140122) medium at density of 2 Mio/ml for 3 hours in 5% CO2, 37° C. and 95% humidity. For coating of plates, […] or PBS++ with CD3 antibody (concentration depending on donor and determined by CD3 titrations) was added 100 μl/well to Poly-D Lysine coated 96-well plates. Plates were sealed and incubated at room temperature for 3 hours on a table-top rocking platform. After incubation, plates were washed once with PBS−− and filled with 40 μl/well culture medium only. Compounds were then added (see next section) to medium only plates. After 3 hours of culturing the T-cells, cells were filtered through a cell strainer (Miltenyi Biotech, #130-041-407), counted again and concentration was adjusted to 1.25 Mio/ml.
Cells were then seeded 80 μl/well to the 40 μl/well including dispensed compounds according to plate layout. By adding cells, compounds were further diluted 1:3, and resulting in 100k cells/120 μl/well. After 24 hours 40 μl of supernatant was collected carefully from the top while not disturbing the cells and transferred into a round bottom 96 well plate. Collected and frozen supernatant was used for detection of IL2 using the IL-2 Human ProQuantum Immunoassay Kit (Invitrogen) or using the Human IL-2 ELISA Kit (Thermo Fisher).
Compounds were added in a 5 or 6 pt dose response with the Tecan D300e Digital Dispenser, all conditions 3 times more concentrated than the end-concentration, since cells are added afterwards (80 μl cells to 40 μl prepared medium with treatment). The DR was starting at 20 μM or 10 μM final top concentration and a dilution factor of 3.333. The positive control was the reference compound A1 that was added in a dose response as well, additionally to 3 wells of only 20 μM representing the positive stimulator control. All wells were normalized with DMSO to a final concentration of 0.6% (0.2% end-concentration).
The immunoassay is done following the manufacturer's manual (Invitrogen, #A35603).
Additional information: For the immunoassay, MicroAmp™ EnduraPlate™ Optical 384-Well plates are used. Frozen supernatant is thawed and centrifuged for 5 minutes at 1000×g, both steps at 4° C. After centrifugation, required sample amount is taken from the top, and in a separate LightCycler V-bottom plate (working plate) diluted with assay dilution buffer, dilution factor depending on the PBS or CD3 condition but at least 1:3. IL-2 standard and blanks are prepared in the same V-bottom plate, standard with a range of […] (extended version). After preparation, […] of sample dilutions or standard/blanks are transferred to the optical 384-well plate (assay plate) and the 10 μl reaction protocol is being followed. For measurement, the QuantStudio 12K Flex system is used. Raw data is extracted and IL-2 concentrations are calculated with the Thermo Fisher online app (apps.thermofisher.com/apps/proquantum).
ELISA is done following the manufacturer's manual (Thermo Fisher Scientific, #88-7025-88).
Additional information: For the ELISA Nunc MaxiSorp 96 well plates are used. Frozen supernatant is thawed and centrifuged for 5 minutes at 1000×g, both steps at 4° C. After that, required sample amount is taken from the top, and in a separate V-bottom plate diluted with ELISA diluent, dilution factor depending on the PBS or CD3 condition. […]

primary human T-cells [2] = assay: T-cell proliferation assay (CellTiter-Glo); type: cell-based; conditions: isomer A; for EC50: CD3 antibody-stimulated T-cells, CellTiter-Glo after 5 days, read-out: Tcell Proliferation CD3 EC50; for Emax: read-out: Emax proliferation (% activation)
Method in brief: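 Expanded primary human T-cells (100k/well) on CD3-antibody-coated or PBS-only plates, 5–6-point doses from 20 or 10 μM top, 0.2% DMSO; proliferation by CellTiter-Glo ATP luminescence after 5 days. Normalized to DMSO (0%) and 20 μM reference compound (100%); EC50 and Emax from sigmoidal fit for CD3 conditions.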

[3] = Homo sapiens, T-cell, CD3 condition, 24 hours, 20 μM reference compound A1 = 100%, DMSO neutral control
[4] = Homo sapiens, T-cell, 120 h, CD3 condition, 5 days, 20 μM reference compound A1 = 100%, DMSO neutral control

| EC50 (primary human T-cells [1]; Homo sapiens, T-cell) | Compound | Emax (primary human T-cells [1]; [3]) | EC50 (primary human T-cells [2]; Homo sapiens, T-cell, 120 h) | Emax (primary human T-cells [2]; [4]) | EC50 (primary human T-cells [1]) | Emax IL2 (% activation) (primary human T-cells [1]; CD3 condition, 24 hours, 20 μM reference compound A1 = 100%, DMSO neutral control) | EC50 (primary human T-cells [2]) | Emax proliferation (% activation) (primary human T-cells [2]; CD3 condition, 5 days, 20 μM reference compound A1 = 100%, DMSO neutral control) |
| --- | --- | --- | --- | --- | --- | --- | --- | --- |
| > 10000 nM | COc1ccc(-c2ccc(CN3C(=O)[C@H](N)CC(F)(F)c4cc(F)c(-c5nnc(C(C)(C)S(C)(=O)=O)o5)cc43)cc2)nc1 (single isomer, unassigned) [Example 39] | 35% | 1420 nM | 98% |  |  |  |  |
| > 10000 nM | CC(C)(C#N)c1nnc(-c2cc3c(cc2F)C(F)(F)C[C@@H](N)C(=O)N3Cc2ccc(-c3ccc(C(F)F)cn3)cc2)o1 (single isomer, unassigned) [Example 40] | 27% | 655 nM | 99% |  |  |  |  |
| 884 nM | CC(C)(C#N)c1nnc(-c2cc3c(cc2F)C(F)(F)C[C@@H](N)C(=O)N3Cc2ccc(-c3ccc(OC(F)F)cn3)cc2)o1 (single isomer, unassigned) [Example 41] | 131% | 196 nM | 113% |  |  |  |  |
| 1050 nM | CC(C)(C)c1nnc(-c2cc3c(cc2F)C(F)(F)CC(N)C(=O)N3Cc2ccc(OC(F)(F)F)cc2)o1 (stereo not drawn) [Example 1, 3-amino-8-(5-tert-butyl-1,3,4-oxadiazol-2-yl)-5,5,7-trifluoro-1-[[4-(trifluoromethoxy)phenyl]methyl]-3,4-dihydro-1-benzazepin-2-one] | 96% | 2590 nM | 74% |  |  |  |  |
|  | (3S)-3-amino-5,5,7-trifluoro-8-(5-morpholino-1,3,4-oxadiazol-2-yl)-1-[[4-(trifluoromethoxy)phenyl]methyl]-3,4-dihydro-1-benzazepin-2-one and (3R)-3-amino-5,5,7-trifluoro-8-(5-morpholino-1,3,4-oxadiazol-2-yl)-1-[[4-(trifluoromethoxy)phenyl]methyl]-3,4-dihydro-1-benzazepin-2-one [Example 3] |  |  |  | > 10000 nM | 37 % activation | 550 nM | 57 % activation |

| Compound | EC50 (primary human T-cells [1]; Homo sapiens, T-cell) | Emax (primary human T-cells [1]; [3]) | EC50 (primary human T-cells [2]; Homo sapiens, T-cell, 120 h) | Emax (primary human T-cells [2]; [4]) | EC50 (primary human T-cells [1]) | Emax IL2 (% activation) (primary human T-cells [1]; CD3 condition, 24 hours, 20 μM reference compound A1 = 100%, DMSO neutral control) | EC50 (primary human T-cells [2]) | Emax proliferation (% activation) (primary human T-cells [2]; CD3 condition, 5 days, 20 μM reference compound A1 = 100%, DMSO neutral control) |
| --- | --- | --- | --- | --- | --- | --- | --- | --- |
| COC(=O)N1CC2CC(c3nnc(-c4cc5c(cc4F)C(F)(F)CC(N)C(=O)N5Cc4ccc(-c5noc(C(F)(F)F)n5)cc4)o3)(C2)C1 (single isomer, unassigned) [Example 42] | 2890 nM | 129% | 1260 nM | 117% |  |  |  |  |
